Laboratory results: PubChem BioAssay AID310 (DTP/NCI, 2004)
Values joined by “and” are separate entries in the source; they are usually repeats but may differ in a detail not shown here. Identical values can stand only once. Records with an inconclusive call do not appear. Where a SMILES comes first, the peptide text is derived from it. [ ]: non-standard residue; d: D form. Ac5c = NC1(C(=O)O)CCCC1

Tested on: C3AKF1 mice, osteogenic sarcoma HE10734 s.c., tumor weight T/C
Experiment: NCI In Vivo Anticancer Drug Screen. Data for tumor model Osteogenic Sarcoma HE 10734 (subcutaneous) in C3AKF1 (CHKRF1) mice
Settings: endpoint: mean tumor weight, schedule: Q01DX010 (ip), higher = larger tumour
Experimental: The antitumor activity of compounds was measured in mice bearing transplantable tumors. Survival or tumor size were measured and the results are expressed as the measurement made in the treated group (T) divided by the measurement made in the vehicle treated control group (C). The tumor model used in this assay is Osteogenic Sarcoma HE 10734 (subcutaneous) in C3AKF1 (CHKRF1) mice

[1] = dose: 50.0 mg/kg/injection, vehicle: saline
[2] = dose: 200.0 mg/kg/injection, vehicle: saline
[3] = dose: 0.75 mg/kg/injection, vehicle: saline
[4] = dose: 125.0 mg/kg/injection, vehicle: saline
[5] = dose: 250.0 mg/kg/injection, vehicle: saline
[6] = dose: 500.0 mg/kg/injection, vehicle: saline
[7] = dose: 1000.0 mg/kg/injection, vehicle: saline
[8] = dose: 100.0 mg/kg/injection, vehicle: saline
[9] = dose: 62.5 mg/kg/injection, vehicle: carboxymethylcellulose (CMC)
[10] = dose: 125.0 mg/kg/injection, vehicle: carboxymethylcellulose (CMC)
[11] = dose: 500.0 mg/kg/injection, vehicle: carboxymethylcellulose (CMC)
[12] = dose: 6.0 mg/kg/injection, vehicle: saline
[13] = dose: 12.0 mg/kg/injection, vehicle: saline
[14] = dose: 12.5 mg/kg/injection, vehicle: saline
[15] = dose: 25.0 mg/kg/injection, vehicle: saline
[16] = dose: 30.0 mg/kg/injection, vehicle: carboxymethylcellulose (CMC)

In the case of `CC1(C)N=C(N)N=C(N)N1c1cccc(Br)c1`, the T/C (dose: 4.4 mg/kg/injection, vehicle: carboxymethylcellulose (CMC)) is reported as 89 % of control, the T/C (dose: 6.6 mg/kg/injection, vehicle: carboxymethylcellulose (CMC)) is reported as 102 % of control and the T/C (dose: 10.0 mg/kg/injection, vehicle: carboxymethylcellulose (CMC)) is reported as 50 % of control and 51 % of control.

For `S=c1c2[nH]cnc2ncn1CCSC1=NC=NC2=NC=NC21` (stereo not given), the T/C [1] was 81 % of control, the T/C [2] was 35 % of control and the T/C (dose: 400.0 mg/kg/injection, vehicle: saline) was 29 % of control.

With `CC[C@H]1CN2CCc3cc(OC)c(OC)cc3[C@@H]2C[C@@H]1C[C@H]1NCCc2cc(OC)c(OC)cc21` the T/C (dose: 1.0 mg/kg/injection, vehicle: saline) was 82 % of control and the T/C (dose: 2.0 mg/kg/injection, vehicle: saline) was 82 % of control.

In the case of `CCCC(=O)NC1=C(N2CC2)C(=O)C(NC(=O)CCC)=C(N2CC2)C1=O`, the T/C (dose: 0.5 mg/kg/injection, vehicle: saline) is reported as 104 % of control, the T/C [3] is reported as 72 % of control and the T/C (dose: 1.1 mg/kg/injection, vehicle: saline) is reported as 83 % of control. For the same compound, the T/C (dose: 1.7 mg/kg/injection, vehicle: saline) was 47 % of control and 60 % of control.

With `O=C(O)CC(O)(CC(=O)O)C(=O)O.[Ga]` the T/C (dose: 12.5 mg/kg/injection, vehicle: carboxymethylcellulose (CMC)) was 84 % of control, the T/C (dose: 25.0 mg/kg/injection, vehicle: carboxymethylcellulose (CMC)) was 84 % of control and the T/C (dose: 50.0 mg/kg/injection, vehicle: carboxymethylcellulose (CMC)) was 39 % of control.

For `c1cc2n(n1)CCN2`, the T/C (dose: 30.0 mg/kg/injection, vehicle: saline) was 100 % of control, the T/C (dose: 60.0 mg/kg/injection, vehicle: saline) was 68 % of control and the T/C (dose: 120.0 mg/kg/injection, vehicle: saline) was 40 % of control.

With `Nc1nc(SCc2ccc([N+](=O)[O-])cc2)c2[nH]cnc2n1` the T/C [4] was 86 % of control, the T/C [5] was 89 % of control and the T/C [6] was 58 % of control. For the same compound, the T/C [7] was 59 % of control.

In the case of `CCCCSc1nc(N)nc2c1ncn2CC(C)CC` (stereo not given), the T/C [8] is reported as 109 % of control and the T/C [2] is reported as 57 % of control.

In the case of `ClCCn1cnc2c(SCc3ccccc3Cl)ncnc21`, the T/C [1] is reported as 72 % of control, the T/C [8] is reported as 56 % of control and the T/C [2] is reported as 35 % of control.

In the case of `CS(=O)(=O)OC[C@@H](O)[C@@H](O)COS(C)(=O)=O`, the T/C [9] is reported as 88 % of control, the T/C [10] is reported as 53 % of control and 74 % of control and the T/C [11] is reported as 92 % of control and 109 % of control.

For `CCc1c(CC(=O)O)c2cc(C)ccc2n1Cc1ccc(Cl)cc1`, the T/C [1] was 79 % of control.

In the case of `[I][Hg][CH2]C1COCC([CH2][Hg][I])O1.[I][Hg][CH2]C1COCC([CH2][Hg][I])O1` (stereo not given), the T/C [12] is reported as 83 % of control and the T/C [13] is reported as 52 % of control.

In the case of `CC(/C=N/N=C(N)N)=N/N=C(N)N`, the T/C [14] is reported as 85 % of control and the T/C [15] is reported as 63 % of control.

In the case of `NCC(=O)NC1(C(=O)O)CCCC1` (H-Gly-[Ac5c]-OH), the T/C (dose: 66.0 mg/kg/injection, vehicle: saline) is reported as 79 % of control, the T/C [8] is reported as 58 % of control and the T/C (dose: 150.0 mg/kg/injection, vehicle: saline) is reported as 35 % of control. The T/C (dose: 225.0 mg/kg/injection, vehicle: saline) was 20 % of control and 27 % of control.

With `c1ccc(CSc2ncnc3nc[nH]c23)nc1` the T/C [1] was 76 % of control and 81 % of control and the T/C [8] was 29 % of control and 39 % of control.

With `CCCCCCCCCCCCO[P+](=O)OCCCCCCCCCCCC` the T/C (dose: 65.0 mg/kg/injection, vehicle: carboxymethylcellulose (CMC)) was 81 % of control, the T/C (dose: 95.0 mg/kg/injection, vehicle: carboxymethylcellulose (CMC)) was 55 % of control and the T/C (dose: 145.0 mg/kg/injection, vehicle: carboxymethylcellulose (CMC)) was 51 % of control. For the same compound, the T/C (dose: 220.0 mg/kg/injection, vehicle: carboxymethylcellulose (CMC)) was 48 % of control and the T/C (dose: 222.0 mg/kg/injection, vehicle: carboxymethylcellulose (CMC)) was 36 % of control.

For `CCOC(=O)NC`, the T/C [4] was 104 % of control, the T/C [5] was 67 % of control and the T/C [6] was 59 % of control. For the same compound, the T/C [7] was 27 % of control.

`O=C(Nc1ccc(C2=NCCN2)cc1)c1ccc(C(=O)Nc2ccc(C3=NCCN3)cc2)c(NC(=O)c2ccc(C(=O)Nc3cc(C(=O)Nc4ccc(C5=NCCN5)cc4)ccc3C(=O)Nc3ccc(C4=NCCN4)cc3)cc2)c1` was tested, and the T/C (dose: 28.0 mg/kg/injection, vehicle: saline) was 111 % of control, the T/C (dose: 45.0 mg/kg/injection, vehicle: saline) was 104 % of control and the T/C (dose: 65.0 mg/kg/injection, vehicle: saline) was 118 % of control. The T/C (dose: 95.0 mg/kg/injection, vehicle: saline) was 98 % of control and 107 % of control, the T/C (dose: 140.0 mg/kg/injection, vehicle: saline) was 93 % of control and the T/C (dose: 210.0 mg/kg/injection, vehicle: saline) was 89 % of control. For the same compound, the T/C (dose: 315.0 mg/kg/injection, vehicle: saline) was 110 % of control.

`CCC(=O)NC1=C(N2CC2)C(=O)C(NC(=O)CC)=C(N2CC2)C1=O` was tested, and the T/C (dose: 0.26 mg/kg/injection, vehicle: saline) was 118 % of control, the T/C (dose: 0.4 mg/kg/injection, vehicle: saline) was 77 % of control and the T/C (dose: 1.2 mg/kg/injection, vehicle: saline) was 30 % of control.

For `CCCCn1cnc2c(SC)nc(N)nc21`, the T/C [16] was 69 % of control and the T/C (dose: 115.0 mg/kg/injection, vehicle: carboxymethylcellulose (CMC)) was 71 % of control.

`O=C(O)c1ccc(-c2ccccc2)cc1` was tested, and the T/C (dose: 200.0 mg/kg/injection, vehicle: carboxymethylcellulose (CMC)) was 70 % of control.

`CCC[CH2][Sn]([CH2]CCC)([CH2]CCC)[O]C(=O)CC[S][Sn]([CH2]CCC)([CH2]CCC)[CH2]CCC` was tested, and the T/C [3] was 124 % of control, the T/C (dose: 1.5 mg/kg/injection, vehicle: saline) was 90 % of control and the T/C [12] was 72 % of control. The T/C [13] was 89 % of control and the T/C (dose: 24.0 mg/kg/injection, vehicle: saline) was 30 % of control.

In the case of `CS(=O)(=O)OCCCCCCCCCOS(C)(=O)=O`, the T/C (dose: 8.0 mg/kg/injection, vehicle: carboxymethylcellulose (CMC)) is reported as 81 % of control, the T/C (dose: 16.0 mg/kg/injection, vehicle: carboxymethylcellulose (CMC)) is reported as 81 % of control and the T/C (dose: 28.0 mg/kg/injection, vehicle: carboxymethylcellulose (CMC)) is reported as 57 % of control. For the same compound, the T/C (dose: 55.0 mg/kg/injection, vehicle: carboxymethylcellulose (CMC)) was 37 % of control.

In the case of `CCOC(=O)Sc1ncnc2nc[nH]c12`, the T/C (dose: 112.0 mg/kg/injection, vehicle: carboxymethylcellulose (CMC)) is reported as 13 % of control.

With `CC(C)CCSc1nc(N)nc2nc[nH]c12` the T/C (dose: 62.0 mg/kg/injection, vehicle: saline) was 64 % of control and the T/C [4] was 75 % of control.

`O=C(O)C(=O)c1ccc(-c2ccccc2)cc1` was tested, and the T/C (dose: 35.0 mg/kg/injection, vehicle: carboxymethylcellulose (CMC)) was 69 % of control.

For `COc1cc([C@@H]2c3cc4c(cc3[C@H](O)[C@H]3COC(=O)[C@@H]23)OCO4)cc(OC)c1OC`, the T/C (dose: 7.0 mg/kg/injection, vehicle: saline) was 75 % of control.

For `CCN(CC)Cc1cc(Nc2c3ccccc3nc3cc(Cl)ccc23)ccc1O`, the T/C [14] was 78 % of control, the T/C [15] was 111 % of control and the T/C [1] was 70 % of control.

`Nc1ccc2ccccc2c1N=Nc1ccccc1` was tested, and the T/C [9] was 101 % of control, the T/C [10] was 100 % of control and the T/C (dose: 250.0 mg/kg/injection, vehicle: carboxymethylcellulose (CMC)) was 65 % of control. For the same compound, the T/C [11] was 41 % of control.

With `NC(N)=N/N=C/C=N/N=C(N)N` the T/C [16] was 81 % of control.
